Consider four compounds from patent publication US20230265296A1, “COATING COMPOSITION INCLUDING ALKYL OXIMES” (AdvanSix Resins & Chemicals LLC, priority 2015, published 2023).

A short description of series [1]: Saturated vapor concentration. Format: physicochemical.
Series [2] in a line: Eye irritation categorisation. As to conditions: hazard code.
Series [3] deals with algae. Nature of the series: Algae growth inhibition (EC50). The series is classed as cell-based.
Series [4] concerns fish. Nature of the series: Fish mortality (LC50). The series is classed as in vivo.
The nature of series [5]: Sensitization classification.
The nature of series [6]: Dermal irritation.
Series [7] in a line: Vapor pressure. As to conditions: at 20° C. The series is classed as physicochemical.

For the compound `CCC/C(C)=N\O` [2-PO, 2-pentanone oxime], in series [1], the saturated vapor concentration was found to be 300 ppm. Further, the “saturated vapor concentration relative to that of MEKO” value in series [1] (2-PO versus MEKO) is on record as “less than 25%”. In addition, the eye irritation category result in series [2] is reported as “serious eye irritation (code H319)”. For the same compound, the “effective concentration of 50% growth inhabitation (EC50) for algae” value in series [3] is listed as 88 ppm. In addition, the “lethal concentration of 50% mortality (LC50) for fish” value in series [4] was “greater than 100 ppm”. For the same compound, the sensitizer classification result in series [5] is “not a sensistizer”. In addition, the dermal irritation entry in series [6] is “no irritation”. The figures for the vapor pressure result in series [7] and in series [7] (listed as 2-pentanone oxime) were “about 1.60 mm Hg” and “about 2.14 hPa”, respectively.
In series [1], `CCC(C)=NO` [MEKO, methyl ethyl ketoxime, reference compound] gave a saturated vapor concentration of 1350 ppm. In addition, the “effective concentration of 50% growth inhabitation (EC50) for algae” value in series [3] worked out at 7 ppm. In addition, in series [4], the “lethal concentration of 50% mortality (LC50) for fish” value is recorded as 48 ppm. In series [7], this compound showed a vapor pressure of 2.00 mm Hg.
As for `CC(CC(C)C)=NO` [MIBKO, methyl isobutyl ketoxime], the vapor pressure result in series [7] was “about 0.13 hPa”.
On the same count and under the same terms, the value for `C/C(=N/O)C(C)C` [3-methyl-2-butanone oxime] was “less than 0.975 mm Hg”.
